From patent US5434136A, “Treatment of motility disorders with a GNRH analog” (priority 1992, dated 1995)

Key:
Assay type in all cases: in vivo, human
[1] = tested on: motility of stomach and small intestine; assay: Motility recordings (duodenal jejunal manometry) and hydrogen breath test in SLE patients
Experimental: Motility recordings of the stomach and small intestine were performed with a ultraminiature force-transducer probe (Millar Instruments, Houston, Tex.). Pressure readings from the probe were recorded on an R612 physiologic recorder fitted with Model 9872 couplers (SenorMedics, Yorba Linda, Calif.). After the probe was passed transnasally and placed fluoroscopically, a 12 hour recording of the patient was made with the patient in the fasted state. They then drank a 240-ml liquid meal (ENSURE), and the recording was continued for three hours to evaluate conversion from the fasting pattern to fed-state motor activity. During the fasting state, this patient had three poorly formed and disorganized migrating motor complexes, whereas the normal range expected is 6-8, or a mean of 7.4 in the 12 hour recording period. […] The patient was diagnosed as having chronic intestinal pseudo-obstruction associated with sero-negative SLE.

[2] = tested on: GI disorders secondary to SLE; assay: Treatment of patients with GI disorders secondary to Systemic Lupus Erythematosus: clinical outcome; conditions: for GI symptoms: within eight weeks
Experimental: Daily treatment with 2.0 mg luprolide acetate (Lupron, Tapp Abbott Pharmaceutical Company) was given daily by subcutaneous injection. […] Treatment with 1.25 mg. of leuprolide acetate (Lupron) was given daily by subcutaneous injection. […] Daily administration of 1.75 mg of luprolide acetate (Lupron) was administered subcutaneously. […] This patient has been hospitalized several times since beginning luprolide acetate therapy for exacerbations of their SLE, but the GI tract has not been a factor. Their debilitating symptoms have been controlled, and they were able to return to work. Daily administration of 1.5 mg of luprolide acetate (Lupron) was given by subcutaneous injection. Within eight weeks of Lupron therapy, their GI symptoms were controlled. […] Daily administration of 1.75 mg luprolide acetate (Lupron) was given subcutaneously. After six months of Lupron therapy, motility recordings were again performed. Ten migrating motor complexes per 12 hour recording session were seen. These complexes were organized and appeared more typical of a controlled tracing, showing normal cycling activity in the stomach and small intestine. […] Their hydrogen breath test was unchanged.

[3] = tested on: functional bowel disease (GMD, IIHVN, Roux-en-Y Syndrome); assay: Treatment of five patients with leuprolide acetate: symptoms
Text: Patients: Four of the five patients tested were women with functional bowel disease: two with gastrointestinal motor dysfunction (GMD), and two with idiopathic intestinal hollow visceral myopathy/neuropathy (IIHVN). The fifth patient had Roux-en-Y Syndrome. All patients had severe, incapacitating symptoms of abdominal pain, nausea, and intermittent vomiting. All had made frequent visits to emergency rooms, had seen many physicians, and undergone multiple tests and surgical procedures, and were unable to maintain their jobs or quality of life. They had been treated with many different drugs, including experimental drugs by protocol. They had difficulty in maintaining body weight, because their symptoms were worsened by eating. The symptoms of the two patients with GMD were abdominal pain located in the right upper quadrant and epigastrium, daily nausea, and intermittent vomiting exacerbated by eating and by the luteal phase of the menstrual cycle. The two patients with IIHVN had abdominal pain, nausea, and intermittent vomiting, and also had urinary tract involvement consisting of pain and a decrease in urination. The fifth patient had Roux-en-Y syndrome (defined as epigastric-to-right-upper-quadrant pain, nausea, and vomiting increased by eating) after surgical construction of a gastro-jejunal Roux-en-Y anastomosis. The mean duration of these symptoms was eight years (Table 1). All subjects had undergone extensive blood testing, several upper gastrointestinal x-ray series, barium enemas, esophagogastroduodenoscopy, endoscopic retrograde cholangiopancreatography, gastric emptying tests with radiolabeled meal, ultrasound of the abdomen, computerized axial tomography of the abdomen, and many other tests. The results of all tests were normal, except for prolonged gastric emptying in the patient with the Roux-en-Y Syndrome. Because of their intractable clinical problem, these patients were included in the test protocol with leuprolide acetate. Protocol: The symptoms of each patient were first assessed, and their tests evaluated. Each patient kept a daily symptom diary. Leuprolide acetate was obtained by prescription as Lupron (TAP pharmaceuticals, Abbott Labs, North Chicago, Ill.). One multi-use vial of Lupron comprised of […] Leuprolide Acetate. A daily dose of 0.5 mg ([…]) was self-administered by subcutaneous injection, for a period of three months. Each patient was examined at 0, 1 and 3 months of treatment. After the third month, leuprolide was continued as previously, and estrogen (0.625 mg orally) and calcium (1000 mg orally) were also administered. At the end of the sixth month, a two week withdrawal period from leuprolide acetate ensued. During this period a 10 mg oral dose of progesterone was given to pre-menopausal patients, to assess recurrence of symptoms and to induce menses. Post-menopausal women were not treated with progesterone during the two week withdrawal period. This procedure was then continued for an additional six months, with drug withdrawal and progesterone given every three months to induce a menstrual cycle. Serum estradiol, progesterone, FSH, and LH were quantitated by radioimmunoassay prior to the initiation of leuprolide treatment, and at three months post treatment initiation.

[4] = SLE patient 1, 2.0 mg daily s.c.
[5] = SLE patient 2, 1.25 mg daily s.c., within approximately eight weeks
[6] = SLE patient 4, 1.5 mg daily s.c.
[7] = Patient 4 (IIHVN), 0.5 mg daily s.c.
[8] = Patient 5 (Roux-en-Y), 0.5 mg daily s.c.

Compound: CCNC(=O)[C@@H]1CCCN1C(=O)[C@H](CCCNC(=N)N)NC(=O)[C@H](CC(C)C)NC(=O)[C@@H](CC(C)C)NC(=O)[C@H](Cc1ccc(O)cc1)NC(=O)[C@H](CO)NC(=O)[C@H](Cc1c[nH]c2ccccc12)NC(=O)[C@H](Cc1c[nH]cn1)NC(=O)[C@@H]1CCC(=O)N1 [Leuprolide acetate, leuprolide acetate]
- Motility pattern upon the liquid meal ([1]; SLE patient 4, after six months of therapy, failed to convert before): converted to the fed state
- Cycling migrating motor complexes in the motility recording ([1]; SLE patient 4, after six months of therapy, virtually no motility before, normal range 6-8 per 12 hour): six
- Migrating motor complexes per 12 hour recording session ([1]; SLE patient 5, 1.75 mg daily s.c., after six months, absence of motility before): Ten
- Motility pattern after intake of the liquid meal ([1]; SLE patient 5, after six months of therapy, failed to convert before): converted to the fed state pattern
- Hydrogen breath test (oral to cecal transit time) ([1]; SLE patient 5, after six months of therapy, markedly prolonged before): unchanged
- Compliment levels (C3 and C4) [2, 4]: returned to normal
- Hemoglobin, hematocrit, white blood cells and platelets [2, 4]: returned to normal
- Need of Imuran or prednisone to control SLE [2, 4]: no longer required Imuran or prednisone
- GI symptoms [2, 4]: free of the above described GI symptoms
- Body weight gained [2, 5]: 15-20 pounds
- Gastrointestinal symptoms [2, 5]: free of gastrointestinal symptoms
- Oral food intake ([2]; SLE patient 3, 1.75 mg daily s.c., required TPN before): able to eat soft, solid food by mouth
- GI symptoms ([2]; SLE patient 3, 1.75 mg daily s.c.): controlled
- Nutrition [2, 6]: able to eat and maintain their nutrition on liquid supplements taken by mouth
- Body weight within six months ([2]; SLE patient 4, 1.5 mg daily s.c., oral intake): did not gain weight, but they did not lose weight
- GI symptoms [2, 6]: controlled
- Effectiveness of therapy in an older, post menopausal patient ([2]; SLE patient 5): effective
- Eating and body weight ([2]; SLE patient 5, after six months of therapy): able to eat foods by mouth and gained weight
- Constipation: after leuprolide acetate ([3]; Patient 1, 0.5 mg daily s.c.): Daily formed stools
- Intermittent vomiting: after leuprolide acetate ([3]; Patient 1, 0.5 mg daily s.c.): Abolished
- Nausea, daily: after leuprolide acetate ([3]; Patient 1, 0.5 mg daily s.c.): Decreased considerably
- Pain, RUQ, epigastrium, BLQ: after leuprolide acetate ([3]; Patient 1, 0.5 mg daily s.c.): Abolished
- Constipation, intermittent: after leuprolide acetate ([3]; Patient 2, 0.5 mg daily s.c.): Daily formed stools
- Epigastric to RUQ pain: after leuprolide acetate ([3]; Patient 2, 0.5 mg daily s.c.): Abolished
- Nausea, daily: after leuprolide acetate ([3]; Patient 2, 0.5 mg daily s.c.): Abolished
- Bilateral lower quadrant pain: after leuprolide acetate ([3]; Patient 3 (IIHVN)): Abolished
- Bowel and bladder function after therapy ([3]; Patient 3 (IIHVN)): normal bowel and bladder function
- Epigastric to RUQ pain: after leuprolide acetate ([3]; Patient 3 (IIHVN)): Decreased considerably
- Nausea and vomiting after therapy ([3]; Patient 3 (IIHVN)): subsided
- Nausea, daily: after leuprolide acetate ([3]; Patient 3 (IIHVN)): Abolished
- Obstipation: after leuprolide acetate ([3]; Patient 3 (IIHVN)): Daily formed stools
- Pain on urination: after leuprolide acetate ([3]; Patient 3 (IIHVN)): Abolished
- Remaining abdominal pain under therapy ([3]; Patient 3 (IIHVN)): mild and intermittent abdominal pain
- Overall response ([3]; Patient 3 (IIHVN), total abdominal hysterectomy and bilateral salpingo-oophorectomy): responded dramatically
- Overall outcome ([3]; Patient 4 (IIHVN)): symptom-free
- Constipation after ovulation: after leuprolide acetate [3, 7]: Daily formed stools
- Deep boring pain in lower abdomen and rectum: after leuprolide acetate [3, 7]: Abolished
- Urinary difficulty after ovulation: after leuprolide acetate [3, 7]: normal urination
- Urination frequency after leuprolide acetate [3, 7]: 4 to 6 day⁻¹
- Overall outcome ([3]; Patient 5 (Roux-en-Y)): symptom-free
- Diarrhea: after leuprolide acetate [3, 8]: Daily formed stools
- Epigastric to RUQ pain: after leuprolide acetate [3, 8]: Abolished
- Intermittent vomiting: after leuprolide acetate [3, 8]: Abolished
- Nausea, daily: after leuprolide acetate [3, 8]: Abolished
- Worsened by eating: after leuprolide acetate [3, 8]: Abolished
- Body weight gained ([3]; Patient 5 (Roux-en-Y), from 96 to 131 pounds): 35 pounds
- Symptoms after leuprolide treatment was stopped and a progesterone challenge given ([3]; all subjects of Example 1, two week withdrawal): recurrent symptoms within three to five days
- Debilitating symptoms of patients with Motility Disorders (conclusion of Example 1) ([3]; human, in vivo): successfully reduces or abolishes
- Overall outcome after treatment ([3]; patients with GMD (Patients 1 and 2)): symptom-free
